Test systems include A498 renal; CCRF-CEM leukemia; HS 578T breast; HT29 colon; NCI/ADR-RES ovarian; OVCAR-3 ovarian; OVCAR-5 ovarian; PC-3 prostate; RPMI-8226 leukemia; UACC-257 melanoma.
Holding throughout (test): growth of human tumour cells (NCI), 48 h

SMILES strings stand for the structures.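 Where inhibition never reached the appropriate level, the endpoint shown equals the highest concentration tested. Otherwise, values were interpolated linearly from a five-concentration, 48-hour dose response in 96-well plates. Abbreviation: GI50, concentration required for 50% inhibition of growth. At the TGI there is no net growth.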

From PubChem BioAssay (NCI) come the findings set out here.

With `NC(=O)CC1(O)C=C(Br)C(=O)C(Br)=C1`, the GI50 with A498 renal was 15.8 µM; in the test with CCRF-CEM leukemia it was 0.194 µM; in the test on HS 578T breast, 17.8 µM; in the test on HT29 colon it was 4.03 µM; with NCI/ADR-RES ovarian it was 10.1 µM; in the test with OVCAR-3 ovarian, 2.22 µM. Further, the GI50 with OVCAR-5 ovarian is 8.08 µM; in the test on PC-3 prostate, 7.65 µM; in the test with RPMI-8226 leukemia it was 2.25 µM; in the test with UACC-257 melanoma, 1.9 µM. Moreover, the TGI in the test on A498 renal is 29.3 µM; in the test with CCRF-CEM leukemia, 0.434 µM; in the test with HS 578T breast, 46 µM; in the test on HT29 colon it was 19 µM; in the test with NCI/ADR-RES ovarian, greater than 94.4 µM; in the test on OVCAR-3 ovarian, 5.34 µM. Also, the TGI was 21.4 µM in the test with OVCAR-5 ovarian, 24.9 µM in the test with PC-3 prostate, 6.82 µM with RPMI-8226 leukemia and 4.06 µM with UACC-257 melanoma.
Regarding `CCN(CC)CCC(CNc1ccnc2cc(Cl)ccc12)c1ccccc1` (stereo not given), the GI50 is 2.41 µM in the test on A498 renal; 4.02 µM with CCRF-CEM leukemia; 11.5 µM with HS 578T breast; 0.493 µM in the test on HT29 colon; 9.92 µM in the test on NCI/ADR-RES ovarian; 14.9 µM in the test on OVCAR-3 ovarian. Also, the GI50 was 16.9 µM with OVCAR-5 ovarian, 13.9 µM in the test with PC-3 prostate, 3.11 µM with RPMI-8226 leukemia and 1.86 µM in the test on UACC-257 melanoma. Further, the TGI in the test on A498 renal was 13 µM; with CCRF-CEM leukemia, 36.5 µM; with HS 578T breast, 43 µM; with HT29 colon it was 10.4 µM; in the test on NCI/ADR-RES ovarian it was 48.4 µM; in the test on OVCAR-3 ovarian, greater than 100 µM. Moreover, the TGI is 73.3 µM in the test on OVCAR-5 ovarian, 69.9 µM in the test with PC-3 prostate, 13.5 µM with RPMI-8226 leukemia and 3.36 µM in the test with UACC-257 melanoma.
On to `O=c1ccc(=O)n(-c2ccccc2)[nH]1`, for which the TGI in the test on A498 renal, in the test on CCRF-CEM leukemia, in the test on HS 578T breast, in the test with HT29 colon, in the test with NCI/ADR-RES ovarian and with OVCAR-3 ovarian was greater than 100 µM throughout. The TGI in the test with OVCAR-5 ovarian, with PC-3 prostate, in the test on RPMI-8226 leukemia and in the test on UACC-257 melanoma was greater than 100 µM each time.
Regarding `COc1cccc(C2=C(c3cn(C)c4cc(F)ccc34)C(=O)NC2=O)c1`, the GI50 is 5.96 µM in the test with A498 renal; 9.63 µM with CCRF-CEM leukemia; greater than 24 µM in the test with HS 578T breast; 8.35 µM in the test with HT29 colon; 18.2 µM in the test with NCI/ADR-RES ovarian; greater than 18.7 µM in the test on OVCAR-3 ovarian. The GI50 with OVCAR-5 ovarian was greater than 25 µM; in the test on PC-3 prostate, 12.5 µM; in the test on RPMI-8226 leukemia, greater than 17.4 µM; with UACC-257 melanoma it was greater than 25 µM. For the same compound, the TGI in the test on A498 renal, in the test with CCRF-CEM leukemia, in the test with HS 578T breast, with HT29 colon, in the test on NCI/ADR-RES ovarian and with OVCAR-3 ovarian was greater than 25 µM throughout. For the same compound, the TGI with OVCAR-5 ovarian, in the test with PC-3 prostate, in the test with RPMI-8226 leukemia and with UACC-257 melanoma was greater than 25 µM each time.
In the case of `CN1CCN(c2ccc(NC(=O)c3cncnc3Nc3ccc(OCc4cccc(F)c4)c(Cl)c3)cc2)CC1`, the GI50 in the test with A498 renal is 1.55 µM; with CCRF-CEM leukemia it was 1.27 µM; with HS 578T breast, 1.99 µM; in the test on HT29 colon, 1.1 µM; in the test on NCI/ADR-RES ovarian, 5.27 µM; with OVCAR-3 ovarian, 3.58 µM. The GI50 in the test with OVCAR-5 ovarian was 1.6 µM; in the test with PC-3 prostate, 1.78 µM; with RPMI-8226 leukemia, 1.26 µM; in the test on UACC-257 melanoma it was 1.07 µM. Also, the TGI in the test on A498 renal is 24.7 µM; in the test on CCRF-CEM leukemia, 4.23 µM; in the test on HS 578T breast it was 11.6 µM; in the test on HT29 colon, 2.65 µM; in the test with NCI/ADR-RES ovarian, greater than 50 µM; with OVCAR-3 ovarian it was greater than 50 µM. The TGI is 7.29 µM in the test on OVCAR-5 ovarian, greater than 50 µM with PC-3 prostate, 3.32 µM in the test with RPMI-8226 leukemia and 2.54 µM in the test with UACC-257 melanoma.
Take `COc1cccc(/C=C/c2ccnc3ccccc23)c1OC`: the TGI in the test with A498 renal, with CCRF-CEM leukemia, with HS 578T breast, in the test on HT29 colon, in the test with NCI/ADR-RES ovarian and in the test with OVCAR-3 ovarian was greater than 10 µM in each case. Moreover, the TGI with OVCAR-5 ovarian, in the test on PC-3 prostate, with RPMI-8226 leukemia and in the test on UACC-257 melanoma was greater than 10 µM in each case.
As for `O=C1c2cccnc2C(=O)c2c1c(C(=O)NCCn1ccnc1)c1ccccn21`, the GI50 was 5.43 µM in the test with A498 renal; 6.12 µM in the test with CCRF-CEM leukemia; 5.26 µM in the test with HS 578T breast; 2.53 µM in the test with HT29 colon; 27.4 µM in the test with NCI/ADR-RES ovarian; 2.28 µM in the test on OVCAR-3 ovarian. Also, the GI50 is 4.1 µM in the test on OVCAR-5 ovarian, 3.33 µM in the test on PC-3 prostate, 5.95 µM in the test with RPMI-8226 leukemia and 2.06 µM with UACC-257 melanoma. Further, the TGI is 17.6 µM in the test with A498 renal; greater than 100 µM in the test on CCRF-CEM leukemia; 38.7 µM with HS 578T breast; 9.2 µM in the test on HT29 colon; greater than 100 µM with NCI/ADR-RES ovarian; 7.43 µM in the test on OVCAR-3 ovarian. Further, the TGI with OVCAR-5 ovarian came to 24.2 µM; in the test on PC-3 prostate it was 15.2 µM; in the test on RPMI-8226 leukemia it was 88.4 µM; in the test on UACC-257 melanoma it was 3.93 µM.
For the compound `O=C(CCl)Nc1cc(Cl)c(Cl)cc1Cl`, the TGI with A498 renal was greater than 10 µM; in the test on CCRF-CEM leukemia, 5.99 µM; in the test on HS 578T breast, 8.56 µM; in the test on HT29 colon, 3.7 µM; in the test on NCI/ADR-RES ovarian it was 5.31 µM; in the test on OVCAR-3 ovarian, 3.31 µM. In addition, the TGI in the test on OVCAR-5 ovarian was 3.72 µM; in the test on PC-3 prostate, 3.29 µM; with RPMI-8226 leukemia, greater than 10 µM; in the test with UACC-257 melanoma it was 3.24 µM.
